Assay results taken from PMC7251123, “CX-5461 activates the DNA damage response and demonstrates therapeutic efficacy in high-grade serous ovarian cancer” (Nature Communications, 2020).
Where “and” joins values, the source holds several entries; their conditions need not be identical. Equal entries are not always repeated. Where two headings read alike, the source gives them in different places.

Tested on: Pol I transcription
Test: Inhibition of Pol I transcription: 47S precursor rRNA levels by quantitative RT-PCR after 1 h treatment
Type: cell-based, human
Details: for 47S precursor rRNA level, fold change relative to vehicle-treated controls: individual replicates; for IC50: Homo sapiens
Experimental: Fig. 1 Sensitivity of ovarian cancer (OVCA) cell lines to CX-5461. a CX-5461 doses that induce 50% growth inhibition (GI50) at 48 hours. Error bars represent mean ± standard deviation (SD). Asterisks denote mutated TP53 status. […] Information regarding each cell lines source, mean G1_50 values, SD and N values are outlined in Supplementary Table 1. […] Statistical analysis was performed using a two-sided Mann–Whitney test. Error bars represent mean ± SD. c Baseline rDNA transcription rates of OVCA cell lines (listed in (d)), as determined by quantitative real-time PCR (qRT-PCR) analysis using primers specific to the external transcribed spacer 5’ETS (+413–521 bp) relative to the transcription start site (TSS). Expression levels in each cell line were normalised to Vimentin mRNA and expressed as fold change relative to TOV112D cells. Each dot represents the mean value of n = 3 biologically independent experiments per cell line (Individual data points are provided in Supplementary Data 4). Error bars represent mean ± SD. Statistical analysis was performed using a two-tailed unpaired t test. d Dose-response curves of 47S precursor rRNA levels measured by quantitative RT-PCR. OVCA cell lines were treated with vehicle or increasing drug concentrations of CX-5461 (0.001, 0.01, 0.03, 0.1, 0.3, 1 and 3 μM) for 1 h before RNA was harvested. Expression levels were normalised to Vimentin mRNA and expressed as fold change relative to vehicle-treated controls. Shown are the mean of n = 3 independent biological experiments for each cell line. (Individual data points are provided in Supplementary Data 4). e The mean inhibitory concentration values that led to 50% transcription inhibition (IC50) (of n = 3 biologically independent experiments for each cell line) from D are presented (Individual data points are provided in Supplementary Data 4). Error bars represent mean ± SD. Statistical analysis was performed using a two-sided Mann–Whitney test.
For Reverse-transcription qPCR analysis, cells were lysed, RNA extracted, and first-strand cDNA synthesized using random hexamer primers (Promega, C1181) and Superscript III (Invitrogen,18080044). Quantitative PCR (qPCR) was performed in duplicate using the FAST SYBR Green dye (Applied Biosystems, 4385610) on the StepOnePlus real-time PCR system (Applied Biosystems). Primer sequences are listed in (Supplementary Table 3).
Dose-response curves of 4 7S precursor rRNA levels (Figure 1D) measured by quantitative RT-PCR after 1h treatment. Expression levels
were normalised to Vimentin mRNA and expressed as fold change relative to vehicle-treated controls.
IC50 doses (Figure 1E) were determined from dose response curves in Figure 1D
using GraphPad Prism version 8.

With `Cc1cnc(CNC(=O)c2c(=O)c3ccc(N4CCCN(C)CC4)nc3n3c2sc2ccccc23)cn1` [CX-5461] the “47S precursor rRNA level, fold change relative to vehicle-treated controls” value (A2780, CX-5461 0.00000001 M, 1 h) was 1.227 and 1.156 and 0.5552, the “47S precursor rRNA level, fold change relative to vehicle-treated controls” value (A2780, CX-5461 0.00000003 M, 1 h) was 1.079 and 0.6056 and 0.5354 and the “47S precursor rRNA level, fold change relative to vehicle-treated controls” value (A2780, CX-5461 0.0000001 M, 1 h) was 0.7784 and 0.3051 and 0.7248. For the same compound, the “47S precursor rRNA level, fold change relative to vehicle-treated controls” value (A2780, CX-5461 0.0000003 M, 1 h) was 0.4946 and 0.2868 and 0.2848, the “47S precursor rRNA level, fold change relative to vehicle-treated controls” value (A2780, CX-5461 0.000001 M, 1 h) was 0.1884 and 0.1928 and 0.2616 and the “47S precursor rRNA level, fold change relative to vehicle-treated controls” value (A2780, CX-5461 0.000003 M, 1 h) was 0.1746 and 0.05092 and 0.1316. The “47S precursor rRNA level, fold change relative to vehicle-treated controls” value (A2780, CX-5461 1E-09 M, 1 h) was 1.211 and 0.7921 and 0.6449, the “47S precursor rRNA level, fold change relative to vehicle-treated controls” value (EFO21, CX-5461 0.00000001 M, 1 h) was 1.115 and 1.095 and 1.792 and the “47S precursor rRNA level, fold change relative to vehicle-treated controls” value (EFO21, CX-5461 0.00000003 M, 1 h) was 1.11 and 1.692 and 0.987. The “47S precursor rRNA level, fold change relative to vehicle-treated controls” value (EFO21, CX-5461 0.0000001 M, 1 h) was 0.7444 and 0.9773 and 0.668, the “47S precursor rRNA level, fold change relative to vehicle-treated controls” value (EFO21, CX-5461 0.0000003 M, 1 h) was 0.2419 and 0.3103 and 0.414 and the “47S precursor rRNA level, fold change relative to vehicle-treated controls” value (EFO21, CX-5461 0.000001 M, 1 h) was 0.2002 and 0.2399 and 0.3839. The “47S precursor rRNA level, fold change relative to vehicle-treated controls” value (EFO21, CX-5461 0.000003 M, 1 h) was 0.1871 and 0.2673 and 0.0006867, the “47S precursor rRNA level, fold change relative to vehicle-treated controls” value (EFO21, CX-5461 1E-09 M, 1 h) was 1.492 and 1.313 and 0.8129 and the IC50 (1 h, 2008, 1 h, mean n=3, read-out: IC50 Pol I transcription) was 48.8 nM. It also gave an IC50 (1 h, ES2, 1 h, mean n=3, read-out: IC50 Pol I transcription) of 55.1 nM, an IC50 (1 h, JHOC9, 1 h, mean n=3, read-out: IC50 Pol I transcription) of 268 nM and an IC50 (1 h, JHOM1, 1 h, mean n=3, read-out: IC50 Pol I transcription) of 202 nM. For the same compound, the IC50 (1 h, KURAMOCHI, 1 h, mean n=3, read-out: IC50 Pol I transcription) was 47.8 nM, the IC50 (1 h, RMG2, 1 h, mean n=3, read-out: IC50 Pol I transcription) was 114 nM and the IC50 (1 h, sensitive and resistant OVCA cell lines, 1 h treatment, read-out: IC50 (concentration inhibiting Pol I transcription by 50%), range over cell lines) was 38 to 285 nM. It also gave an IC50 (A2780, 1 h, mean n=3, read-out: IC50 Pol I transcription) of 63.3 nM, an IC50 (COLO 704, 1 h, COLO704, 1 h, mean n=3, read-out: IC50 Pol I transcription) of 96.8 nM and an IC50 (EFO-21, 1 h, EFO21, 1 h, mean n=3, read-out: IC50 Pol I transcription) of 65.4 nM. The IC50 (IGROV-1, 1 h, IGROV1, 1 h, mean n=3, read-out: IC50 Pol I transcription) was 38.4 nM, the IC50 (OV-90, 1 h, OV90, 1 h, mean n=3, read-out: IC50 Pol I transcription) was 117 nM and the IC50 (OVCAR-3, 1 h, OVCAR3, 1 h, mean n=3, read-out: IC50 Pol I transcription) was 67.4 nM. For the same compound, the IC50 (OVCAR-4, 1 h, OVCAR4, 1 h, mean n=3, read-out: IC50 Pol I transcription) was 88.5 nM, the IC50 (OVCAR-8, 1 h, OVCAR8, 1 h, mean n=3, read-out: IC50 Pol I transcription) was 97.6 nM and the IC50 (TOV112D, 1 h, TOV112D, 1 h, mean n=3, read-out: IC50 Pol I transcription) was 134 nM. The “47S precursor rRNA level, fold change relative to vehicle-treated controls” value (JHOC9, CX-5461 0.00000001 M, 1 h) was 0.9254 and 0.9049 and 1.002, the “47S precursor rRNA level, fold change relative to vehicle-treated controls” value (JHOC9, CX-5461 0.00000003 M, 1 h) was 1.057 and 1.034 and 0.8359 and the “47S precursor rRNA level, fold change relative to vehicle-treated controls” value (JHOC9, CX-5461 0.0000001 M, 1 h) was 0.8119 and 0.7939 and 0.6945. For the same compound, the “47S precursor rRNA level, fold change relative to vehicle-treated controls” value (JHOC9, CX-5461 0.0000003 M, 1 h) was 0.5763 and 0.5636 and 0.384, the “47S precursor rRNA level, fold change relative to vehicle-treated controls” value (JHOC9, CX-5461 0.000001 M, 1 h) was 0.3587 and 0.3508 and 0.2158 and the “47S precursor rRNA level, fold change relative to vehicle-treated controls” value (JHOC9, CX-5461 0.000003 M, 1 h) was 0.08402 and 0.08216 and 0.06114. For the same compound, the “47S precursor rRNA level, fold change relative to vehicle-treated controls” value (JHOC9, CX-5461 1E-09 M, 1 h) was 1.047 and 1.024 and 0.8051, the “47S precursor rRNA level, fold change relative to vehicle-treated controls” value (OV90, CX-5461 1E-09 M, 1 h) was 1.356 and the “47S precursor rRNA level, fold change relative to vehicle-treated controls” value (RMG2, CX-5461 0.00000001 M, 1 h) was 1.019 and 0.9292 and 0.7914. For the same compound, the “47S precursor rRNA level, fold change relative to vehicle-treated controls” value (RMG2, CX-5461 0.00000003 M, 1 h) was 0.8882 and 0.4552 and 0.4564, the “47S precursor rRNA level, fold change relative to vehicle-treated controls” value (RMG2, CX-5461 0.0000001 M, 1 h) was 0.8694 and 0.414 and 0.3672 and the “47S precursor rRNA level, fold change relative to vehicle-treated controls” value (RMG2, CX-5461 0.0000003 M, 1 h) was 0.5159 and 0.1241 and 0.09886. For the same compound, the “47S precursor rRNA level, fold change relative to vehicle-treated controls” value (RMG2, CX-5461 0.000001 M, 1 h) was 0.2164 and 0.1124 and 0.1026, the “47S precursor rRNA level, fold change relative to vehicle-treated controls” value (RMG2, CX-5461 0.000003 M, 1 h) was 0.06697 and 0.02897 and 0.03341 and the “47S precursor rRNA level, fold change relative to vehicle-treated controls” value (RMG2, CX-5461 1E-09 M, 1 h) was 0.7818 and 0.717 and 0.6208. The “47S precursor rRNA level, fold change relative to vehicle-treated controls” value (TOV112D, CX-5461 0.00000001 M, 1 h) was 1.178 and 0.9492, the “47S precursor rRNA level, fold change relative to vehicle-treated controls” value (TOV112D, CX-5461 0.00000003 M, 1 h) was 0.9271 and the “47S precursor rRNA level, fold change relative to vehicle-treated controls” value (TOV112D, CX-5461 0.0000001 M, 1 h) was 1.01. For the same compound, the “47S precursor rRNA level, fold change relative to vehicle-treated controls” value (TOV112D, CX-5461 0.0000003 M, 1 h) was 0.388 and 0.509, the “47S precursor rRNA level, fold change relative to vehicle-treated controls” value (TOV112D, CX-5461 0.000001 M, 1 h) was 0.1661 and 0.2245 and 0.333 and the “47S precursor rRNA level, fold change relative to vehicle-treated controls” value (TOV112D, CX-5461 0.000003 M, 1 h) was 0.1644 and 0.0787 and 0.1952. The “47S precursor rRNA level, fold change relative to vehicle-treated controls” value (TOV112D, CX-5461 1E-09 M, 1 h) was 1.079 and 1.012 and 1.217.
